# Experimental data: ChEMBL document CHEMBL1152592, “Design, synthesis and biological evaluations of novel 7-[3-(1-aminocycloalkyl)pyrrolidin-1-yl]-6-desfluoro-8-methoxyquinolones with potent antibacterial activity against multi-drug resistant Gram-positive bacteria” (Bioorg Med Chem, 2009)
# Experiments:
# Streptococcus pyogenes = assay: Antibacterial activity against Streptococcus pyogenes G-36 after 18 hrs by twofold microbroth dilution method; assay type: functional; conditions: G-36, 18 h
# Streptococcus mitis = assay: Antibacterial activity against Streptococcus mitis IID685 after 18 hrs by twofold microbroth dilution method; assay type: functional; conditions: IID685, 18 h
# [1] = Aqueous […] of the compound; assay type: physicochemical; conditions: aqueous (not further specified)
# [2] = test system: Staphylococcus epidermidis; assay: Antibacterial activity against Staphylococcus epidermidis 56500 after 18 hrs by twofold microbroth dilution method; assay type: functional; conditions: Staphylococcus epidermidis, 56500, 18 h
# Klebsiella pneumoniae = assay: Antibacterial activity against Klebsiella pneumoniae type 2 after 18 hrs by twofold microbroth dilution method; assay type: functional; conditions: type 2, 18 h
# Escherichia coli = assay: Antibacterial activity against Escherichia coli NIHJ after 18 hrs by twofold microbroth dilution method; assay type: functional
# Enterococcus faecalis [3] = assay: Antibacterial activity against Enterococcus faecalis ATCC 19433 after 18 hrs by twofold microbroth dilution method; assay type: functional; conditions: ATCC19433, 18 h
# Mus musculus [4] = assay: Toxicity in Slc:ddY mouse at 100 mg/kg, iv; assay type: organism-based; set-up: dose 100 mg/kg, route intravenous; conditions: in vivo
# Mus musculus [5] = assay: Toxicity in Slc:ddY mouse at 50 mg/kg, iv; assay type: organism-based; set-up: dose 50 mg/kg, route intravenous; conditions: in vivo
# Enterococcus faecium = assay: Antibacterial activity against vancomycin-resistant Enterococcus faecium after 18 hrs by twofold microbroth dilution method; assay type: functional
# Streptococcus pneumoniae [6] = assay: Antibacterial activity against penicillin-intermediate resistant Streptococcus pneumoniae after 18 hrs by twofold microbroth dilution method; assay type: functional
# Enterococcus faecalis [7] = assay: Antibacterial activity against vancomycin-resistant Enterococcus faecalis after 18 hrs by twofold microbroth dilution method; assay type: functional
# Staphylococcus aureus [8] = assay: Antibacterial activity against levofloxacin, methicillin-resistant Staphylococcus aureus after 18 hrs by twofold microbroth dilution method; assay type: functional
# Staphylococcus aureus [9] = assay: Antibacterial activity against ciprofloxacin, methicillin-resistant Staphylococcus aureus after 18 hrs by twofold microbroth dilution method; assay type: functional
# Mus musculus [10] = assay: Toxicity in Slc:ddY mouse assessed as micronucleated reticulocyte in blood at 100 mg/kg, iv after 48 hrs of treatment by fluorescence microscopy; assay type: organism-based; set-up: dose 100 mg/kg, route intravenous; conditions: in vivo
# Mus musculus [11] = assay: Toxicity in Slc:ddY mouse at 150 mg/kg, iv; assay type: organism-based; set-up: dose 150 mg/kg, route intravenous; conditions: in vivo
# Staphylococcus aureus [12] = assay: Antibacterial activity against Staphylococcus aureus FDA 209-P after 18 hrs by twofold microbroth dilution method; assay type: functional
# Streptococcus pneumoniae [13] = assay: Antibacterial activity against Streptococcus pneumoniae J-24 after 18 hrs by twofold microbroth dilution method; assay type: functional; conditions: J-24, 18 h
# Pseudomonas aeruginosa = assay: Antibacterial activity against Pseudomonas aeruginosa PAO1 after 18 hrs by twofold microbroth dilution method; assay type: functional; conditions: PAO1, 18 h
# [14] = Inhibition of Staphylococcus aureus wild type DNA topoisomerase 4
# Staphylococcus aureus [15] = assay: Selectivity ratio of IC50 for Staphylococcus aureus DNA gyrase Ser84Leu mutant to IC50 for Staphylococcus aureus wild type DNA gyrase
# Staphylococcus aureus [16] = assay: Selectivity ratio of IC50 for Staphylococcus aureus DNA topoisomerase 4 Ser80Phe mutant to IC50 for Staphylococcus aureus wild type DNA topoisomerase 4
# DNA gyrase subunit A = DNA gyrase subunit A (Staphylococcus aureus, UniProt P20831, S84L); assay: Inhibition of Staphylococcus aureus DNA gyrase Ser84Leu mutant
# DNA gyrase = DNA gyrase (Staphylococcus aureus, UniProt P0A0K8+P20831); assay: Inhibition of Staphylococcus aureus wild type DNA gyrase; assay type: protein-complex assay
# [17] = Inhibition of Staphylococcus aureus DNA topoisomerase 4 Ser80Phe mutant
MIC (Streptococcus pyogenes) [µg/mL],MIC (Streptococcus mitis) [µg/mL],solubility [1] [µg/mL],MIC [2] [µg/mL],MIC (Klebsiella pneumoniae) [µg/mL],MIC (Escherichia coli) [µg/mL],MIC (Enterococcus faecalis [3]) [µg/mL],MIC (Staphylococcus aureus [12]) [µg/mL],MIC (Streptococcus pneumoniae [13]) [µg/mL],MIC (Pseudomonas aeruginosa) [µg/mL],SMILES,Activity (Mus musculus [4]),MIC50 (Enterococcus faecium) [µg/mL],MIC90 (Enterococcus faecium) [µg/mL],MIC50 (Streptococcus pneumoniae [6]) [µg/mL],MIC90 (Streptococcus pneumoniae [6]) [µg/mL],MIC50 (Enterococcus faecalis [7]) [µg/mL],MIC90 (Enterococcus faecalis [7]) [µg/mL],MIC50 (Staphylococcus aureus [8]) [µg/mL],MIC50 (Staphylococcus aureus [9]) [µg/mL],MIC90 (Staphylococcus aureus [9]) [µg/mL],also measured
0.012,0.025,89,0.012,0.05,0.012,0.05,–,–,–,COc1c(N2CC[C@@H]([C@H](C)N)C2)c(F)cc2c(=O)c(C(=O)O)cn(C3CC3)c12,Toxic,–,–,–,–,–,–,–,–,–,Activity (Mus musculus [5]): Toxic
–,–,–,–,–,–,–,–,–,–,CN[C@H](CC(C)C)C(=O)N[C@H]1C(=O)N[C@@H](CC(N)=O)C(=O)N[C@H]2C(=O)N[C@H]3C(=O)N[C@H](C(=O)N[C@H](C(=O)O)c4cc(O)cc(O)c4-c4cc3ccc4O)[C@H](O)c3ccc(c(Cl)c3)Oc3cc2cc(c3O[C@@H]2O[C@H](CO)[C@@H](O)[C@H](O)[C@H]2O[C@H]2C[C@](C)(N)[C@H](O)[C@H](C)O2)Oc2ccc(cc2Cl)[C@H]1O [VANCOMYCIN],–,> 128,> 128,0.5,0.5,> 128,> 128,1,1,2,MIC80 (Staphylococcus aureus [8]): 1 µg/mL; MIC90 (Staphylococcus aureus [8]): 1 µg/mL
0.006,0.003,604,0.012,0.05,0.012,0.05,≤ 0.003,0.006,0.39,COc1c(N2CC[C@@H](C3(N)CCC3)C2)ccc2c(=O)c(C(=O)O)cn([C@@H]3C[C@@H]3F)c12,Non-toxic,–,–,–,–,–,–,–,–,–,Activity (Mus musculus [10]): Toxic; Activity (Mus musculus [11]): Toxic; Activity (Mus musculus [5]): Non-toxic
0.003,0.003,180,≤ 0.003,0.025,≤ 0.003,0.025,≤ 0.003,≤ 0.003,0.39,COc1c(N2CC[C@@H](C3(N)CCC3)C2)c(F)cc2c(=O)c(C(=O)O)cn([C@@H]3C[C@@H]3F)c12,–,–,–,–,–,–,–,–,–,–,Activity (Mus musculus [11]): Toxic
–,–,–,–,–,–,–,–,–,–,C[C@H]1COc2c(N3CCN(C)CC3)c(F)cc3c(=O)c(C(=O)O)cn1c23.C[C@H]1COc2c(N3CCN(C)CC3)c(F)cc3c(=O)c(C(=O)O)cn1c23.O [LEVOFLOXACIN],–,–,–,–,–,–,–,16,–,–,IC50 [14]: 2.67 µg/mL; IC50 (DNA gyrase subunit A): > 1380 µM; IC50 [17]: 57.1 µg/mL; MIC80 (Staphylococcus aureus [8]): > 64 µg/mL; MIC90 (Staphylococcus aureus [8]): > 64 µg/mL
–,–,–,–,–,–,–,–,–,–,NCC[C@H](O)C(=O)N[C@@H]1C[C@H](N)[C@@H](O[C@H]2O[C@H](CN)CC[C@H]2N)[C@H](O)[C@H]1O[C@H]1O[C@H](CO)[C@@H](O)[C@H](N)[C@H]1O [ARBEKACIN],–,16,32,32,64,2,2,–,8,32,–
0.003,0.003,173,0.006,0.012,≤ 0.003,0.025,≤ 0.003,≤ 0.003,0.2,CNC1([C@@H]2CCN(c3c(F)cc4c(=O)c(C(=O)O)cn([C@@H]5C[C@@H]5F)c4c3OC)C2)CC1,Toxic,–,–,–,–,–,–,–,–,–,Activity (Mus musculus [11]): Toxic; Activity (Mus musculus [5]): Toxic
0.2,0.1,–,0.05,0.025,≤ 0.003,0.2,0.013,0.05,0.2,N[C@@H]1[C@H]2CN(c3nc4c(cc3F)c(=O)c(C(=O)O)cn4-c3ccc(F)cc3F)C[C@@H]12 [TROVAFLOXACIN],–,–,–,–,–,–,–,–,–,–,–
–,–,–,–,–,–,–,–,–,–,CC(=O)NC[C@H]1CN(c2ccc(N3CCOCC3)c(F)c2)C(=O)O1 [LINEZOLID],–,2,2,1,2,2,2,–,1,1,–
0.012,0.003,161,0.012,0.05,0.006,0.05,≤ 0.003,0.006,0.39,CNC1([C@@H]2CCN(c3ccc4c(=O)c(C(=O)O)cn([C@@H]5C[C@@H]5F)c4c3OC)C2)CC1,Non-toxic,–,–,–,–,–,–,–,–,–,Activity (Mus musculus [10]): Non-toxic
0.003,0.003,221,≤ 0.003,0.012,≤ 0.003,0.012,≤ 0.003,≤ 0.003,0.2,COc1c(N2CC[C@@H](C3(N)CC3)C2)c(F)cc2c(=O)c(C(=O)O)cn([C@@H]3C[C@@H]3F)c12,Toxic,–,–,–,–,–,–,–,–,–,Activity (Mus musculus [11]): Toxic; Activity (Mus musculus [5]): Toxic

SMILES,MIC (Streptococcus pyogenes) [µg/mL],MIC (Streptococcus mitis) [µg/mL],solubility [1] [µg/mL],MIC [2] [µg/mL],MIC (Klebsiella pneumoniae) [µg/mL],MIC (Escherichia coli) [µg/mL],MIC (Enterococcus faecalis [3]) [µg/mL],MIC (Staphylococcus aureus [12]) [µg/mL],MIC (Streptococcus pneumoniae [13]) [µg/mL],MIC (Pseudomonas aeruginosa) [µg/mL],Activity (Mus musculus [4]),MIC50 (Enterococcus faecium) [µg/mL],MIC90 (Enterococcus faecium) [µg/mL],MIC50 (Streptococcus pneumoniae [6]) [µg/mL],MIC90 (Streptococcus pneumoniae [6]) [µg/mL],MIC50 (Enterococcus faecalis [7]) [µg/mL],MIC90 (Enterococcus faecalis [7]) [µg/mL],MIC50 (Staphylococcus aureus [8]) [µg/mL],MIC50 (Staphylococcus aureus [9]) [µg/mL],MIC90 (Staphylococcus aureus [9]) [µg/mL],also measured
C[C@H]1NCc2cc(-c3ccc4c(=O)c(C(=O)O)cn(C5CC5)c4c3OC(F)F)ccc21 [GARENOXACIN],0.1,0.05,–,0.05,0.05,0.012,0.2,0.025,0.025,0.78,–,8,32,0.12,0.12,4,8,2,1,32,IC50 [14]: 1.14 µg/mL; Ratio IC50 (Staphylococcus aureus [15]): > 143; Ratio IC50 (Staphylococcus aureus [16]): 18.2; IC50 (DNA gyrase subunit A): > 1200 µM; IC50 (DNA gyrase): 8.42 µM; IC50 [17]: 20.7 µg/mL; MIC80 (Staphylococcus aureus [8]): 64 µg/mL; MIC90 (Staphylococcus aureus [8]): 64 µg/mL
COc1c(N2C[C@@H]3CCCN[C@@H]3C2)c(F)cc2c(=O)c(C(=O)O)cn(C3CC3)c12 [MOXIFLOXACIN],0.2,0.1,–,0.1,0.05,0.006,0.2,0.013,0.025,0.78,–,4,32,–,–,16,32,4,2,32,IC50 [14]: 1.36 µg/mL; IC50 [17]: 24.2 µg/mL; MIC80 (Staphylococcus aureus [8]): 32 µg/mL; MIC90 (Staphylococcus aureus [8]): 32 µg/mL
COc1c(N2CCNC(C)C2)c(F)cc2c(=O)c(C(=O)O)cn(C3CC3)c12 (configuration not stated) [GATIFLOXACIN],0.39,0.2,–,0.2,0.05,0.006,0.39,0.05,0.2,0.78,–,4,32,0.5,0.5,16,32,–,4,64,IC50 [14]: 1.85 µg/mL; Ratio IC50 (Staphylococcus aureus [15]): 89.1; Ratio IC50 (Staphylococcus aureus [16]): 12.2; IC50 (DNA gyrase subunit A): 765 µM; IC50 (DNA gyrase): 8.58 µM; IC50 [17]: 22.5 µg/mL
O=C(O)c1cn(C2CC2)c2cc(N3CCNCC3)c(F)cc2c1=O [CIPROFLOXACIN],1.56,0.78,–,0.2,0.025,≤ 0.003,0.78,0.05,0.39,0.05,–,–,–,–,–,–,–,> 64,–,–,IC50 [14]: 1.24 µg/mL; IC50 [17]: 22.4 µg/mL; MIC80 (Staphylococcus aureus [8]): > 64 µg/mL; MIC90 (Staphylococcus aureus [8]): > 64 µg/mL
